Measurements from publication PMC3914206.

Experiments:
Assay type in all cases: binding
Conditions in all cases: Compound Concentration 10 µM
panel of 442 kinases [1] = target: T1, panel of 442 kinases (Homo sapiens, UniProt Q00535)
T1 construct: purchased KINOMEscan
Description: (§1) We assessed the selectivity of members of this scaffold using the KINOMEscan methodology across a near comprehensive panel of 442 kinases [[18,27]].

panel of 442 kinases [2] = target: T2, panel of 442 kinases (Homo sapiens, UniProt Q14289)
T2 construct: purchased KINOMEscan
T2 sequence (Q14289 whole entry): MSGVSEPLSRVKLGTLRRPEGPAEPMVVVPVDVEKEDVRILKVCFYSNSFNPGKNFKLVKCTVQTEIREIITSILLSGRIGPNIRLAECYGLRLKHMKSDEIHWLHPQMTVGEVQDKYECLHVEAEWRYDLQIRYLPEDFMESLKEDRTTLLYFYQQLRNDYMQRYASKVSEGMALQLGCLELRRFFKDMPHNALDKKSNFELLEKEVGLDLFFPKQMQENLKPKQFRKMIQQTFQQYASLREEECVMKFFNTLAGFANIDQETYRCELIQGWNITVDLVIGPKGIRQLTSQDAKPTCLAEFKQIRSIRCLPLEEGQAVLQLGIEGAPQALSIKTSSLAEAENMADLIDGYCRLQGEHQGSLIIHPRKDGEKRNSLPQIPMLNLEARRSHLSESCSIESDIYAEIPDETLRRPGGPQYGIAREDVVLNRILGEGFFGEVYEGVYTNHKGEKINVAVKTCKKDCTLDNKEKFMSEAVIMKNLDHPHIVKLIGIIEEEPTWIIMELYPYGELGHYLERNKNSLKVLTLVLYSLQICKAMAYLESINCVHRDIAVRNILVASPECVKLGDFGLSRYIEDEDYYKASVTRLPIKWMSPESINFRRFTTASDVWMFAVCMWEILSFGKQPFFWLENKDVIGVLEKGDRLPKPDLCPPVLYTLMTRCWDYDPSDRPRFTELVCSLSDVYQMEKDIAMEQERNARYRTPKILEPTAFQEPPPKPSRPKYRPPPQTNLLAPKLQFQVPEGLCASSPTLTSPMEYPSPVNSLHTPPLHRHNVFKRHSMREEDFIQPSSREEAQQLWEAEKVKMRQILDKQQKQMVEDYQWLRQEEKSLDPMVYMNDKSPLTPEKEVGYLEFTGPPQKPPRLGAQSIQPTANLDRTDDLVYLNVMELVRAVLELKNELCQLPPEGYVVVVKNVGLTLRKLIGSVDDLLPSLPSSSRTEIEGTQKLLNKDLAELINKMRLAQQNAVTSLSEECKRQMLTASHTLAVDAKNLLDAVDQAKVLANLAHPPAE
Description: as §1

panel of 442 kinases [3] = target: T3, panel of 442 kinases (Homo sapiens, UniProt Q9Y6M4)
T3 construct: purchased KINOMEscan
T3 sequence (Q9Y6M4 whole entry): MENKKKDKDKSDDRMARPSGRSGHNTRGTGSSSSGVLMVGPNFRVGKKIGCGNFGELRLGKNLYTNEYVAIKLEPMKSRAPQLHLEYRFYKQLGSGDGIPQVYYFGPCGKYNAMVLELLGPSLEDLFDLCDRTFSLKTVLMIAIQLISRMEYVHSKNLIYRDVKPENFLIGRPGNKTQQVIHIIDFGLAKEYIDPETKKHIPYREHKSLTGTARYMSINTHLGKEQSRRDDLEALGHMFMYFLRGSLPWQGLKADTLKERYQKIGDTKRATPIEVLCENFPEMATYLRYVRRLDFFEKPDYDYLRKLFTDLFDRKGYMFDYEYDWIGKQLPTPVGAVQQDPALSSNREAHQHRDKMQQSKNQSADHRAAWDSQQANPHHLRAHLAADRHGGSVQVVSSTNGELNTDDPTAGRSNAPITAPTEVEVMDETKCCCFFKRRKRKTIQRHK
Description: as §1

T1 sequence (Q00535 whole entry): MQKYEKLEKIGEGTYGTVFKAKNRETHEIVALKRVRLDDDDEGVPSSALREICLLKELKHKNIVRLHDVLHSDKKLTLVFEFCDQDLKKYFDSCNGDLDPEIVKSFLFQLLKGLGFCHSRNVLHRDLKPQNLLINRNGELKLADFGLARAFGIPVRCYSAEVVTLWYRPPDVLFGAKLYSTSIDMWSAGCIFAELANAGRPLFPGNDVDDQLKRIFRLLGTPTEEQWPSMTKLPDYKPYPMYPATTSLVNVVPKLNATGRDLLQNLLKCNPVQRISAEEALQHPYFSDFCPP

Row | Structure (SMILES) | KINOMEscan: CDK5 (panel of 442 kinases [1]) | KINOMEscan: PYK2 (panel of 442 kinases [2]) | KINOMEscan: CSNK1G3 (panel of 442 kinases [3])
1 | COc1cc(C(=O)N2CCC(N3CCN(C)CC3)CC2)ccc1Nc1ncc2c(n1)N(C)c1ccccc1C(=O)N2C [15 (LRRK2-IN-1)] | 81 | 78 | 93
2 | COc1cc(C(=O)N2CCC(N3CCN(C)CC3)CC2)ccc1Nc1ncc2c(n1)N1CCc3cccc(c31)C(=O)N2C [Compound 24] | – | 77 | –
3 | COc1cc(C(=O)N2CCC(N3CCN(C)CC3)CC2)ccc1Nc1ncc2c(n1)N(C1CCCC1)c1ccccc1C(=O)N2C [Compound 25, 11-cyclopentyl-2-((2-methoxy-4-(4-(4-methylpiperazin-1-yl)piperidine-1-carbonyl)phenyl)amino)-5-methyl-5H-benzo[e]pyrimido[5,4-b][1,4]diazepin-6(11H)-one] | 94 | 17 | 96
4 | CCOc1cc(C(=O)N2CCC(N3CCN(C)CC3)CC2)ccc1Nc1ncc2c(n1)N(C1CCCC1)c1ccccc1C(=O)N2C [Compound 26] | 100 | 43 | 91
